Test results reported in US9738660B2, “Selective inhibitors for protein kinases and pharmaceutical composition and use thereof” (National Chiao Tung University, priority 2014, dated 2017).
Read-outs that look alike come from different tables or passages of the source.

Key:
Assay in all cases: Kinase Profiler, residual kinase activity
Format in all cases: biochemical
CLK1 = CLK1 (Homo sapiens, UniProt P49759); details: CLK1; inhibitor at 500 nM; read-out: percentage of the remaining kinase activity
Source text: (§1) Kinase Profiler services provided by […]. (http://www.reactionbiology.com) were used to analyze the data of the 9 type-S protein kinase inhibitors against the 40 types of protein kinases.

LIMK1 = LIMK1 (Homo sapiens, UniProt P53667); details: read-out: percentage of the remaining kinase activity
Sequence of LIMK1 (P53667 whole entry): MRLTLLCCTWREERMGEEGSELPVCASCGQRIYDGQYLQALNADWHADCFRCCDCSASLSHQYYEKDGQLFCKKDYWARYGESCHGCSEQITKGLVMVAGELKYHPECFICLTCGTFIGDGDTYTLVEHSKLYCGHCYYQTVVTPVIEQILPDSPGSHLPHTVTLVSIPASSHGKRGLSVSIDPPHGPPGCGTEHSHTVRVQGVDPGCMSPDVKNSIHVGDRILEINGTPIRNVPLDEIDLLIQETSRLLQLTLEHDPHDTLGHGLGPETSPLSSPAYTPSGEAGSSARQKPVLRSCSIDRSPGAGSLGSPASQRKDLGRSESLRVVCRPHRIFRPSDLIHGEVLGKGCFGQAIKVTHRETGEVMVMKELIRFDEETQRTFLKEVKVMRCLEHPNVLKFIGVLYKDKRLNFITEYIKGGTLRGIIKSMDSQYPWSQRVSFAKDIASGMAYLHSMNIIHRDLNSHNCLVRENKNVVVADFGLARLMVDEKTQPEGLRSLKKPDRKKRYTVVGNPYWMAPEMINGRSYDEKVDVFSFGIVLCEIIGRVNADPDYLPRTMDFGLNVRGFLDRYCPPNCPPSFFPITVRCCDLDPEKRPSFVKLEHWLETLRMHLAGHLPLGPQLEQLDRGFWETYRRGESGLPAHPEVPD
Source text: as §1

AXL = target: T1, AXL (Homo sapiens, UniProt P30530); details: read-out: percentage of the remaining kinase activity
T1 construct: purchased Research Biology Corp. (http://www.reactionbiology.com)
T1 sequence (P30530 26-894): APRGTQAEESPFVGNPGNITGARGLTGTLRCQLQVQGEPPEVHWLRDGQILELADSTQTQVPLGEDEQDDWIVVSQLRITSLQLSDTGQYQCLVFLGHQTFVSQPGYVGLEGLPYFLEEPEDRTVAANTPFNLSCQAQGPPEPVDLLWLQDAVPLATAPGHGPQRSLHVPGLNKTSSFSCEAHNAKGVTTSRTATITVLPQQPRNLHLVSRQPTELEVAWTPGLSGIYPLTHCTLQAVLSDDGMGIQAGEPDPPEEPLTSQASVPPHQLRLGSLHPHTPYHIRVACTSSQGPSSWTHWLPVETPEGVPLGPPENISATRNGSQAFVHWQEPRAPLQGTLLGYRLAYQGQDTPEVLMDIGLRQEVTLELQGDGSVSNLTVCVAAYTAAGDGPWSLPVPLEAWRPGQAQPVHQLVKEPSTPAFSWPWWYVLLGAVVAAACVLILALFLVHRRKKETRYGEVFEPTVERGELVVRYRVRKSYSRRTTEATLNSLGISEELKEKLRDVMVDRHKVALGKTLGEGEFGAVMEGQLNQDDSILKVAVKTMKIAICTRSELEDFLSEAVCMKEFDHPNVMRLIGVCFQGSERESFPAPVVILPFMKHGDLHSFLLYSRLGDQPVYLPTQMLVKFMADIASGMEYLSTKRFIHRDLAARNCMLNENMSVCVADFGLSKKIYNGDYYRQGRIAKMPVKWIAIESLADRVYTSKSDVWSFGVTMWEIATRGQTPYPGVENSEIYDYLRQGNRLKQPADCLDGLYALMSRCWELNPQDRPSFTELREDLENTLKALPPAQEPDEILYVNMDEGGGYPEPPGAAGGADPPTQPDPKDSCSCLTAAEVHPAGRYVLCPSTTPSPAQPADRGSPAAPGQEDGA
Source text: as §1

KDR = KDR (Homo sapiens, UniProt P35968); details: KDR; inhibitor at 500 nM; read-out: percentage of the remaining kinase activity
Source text: as §1

AKT1 = AKT1 (Homo sapiens, UniProt P31749); details: read-out: percentage of the remaining kinase activity
Sequence of AKT1 (P31749 whole entry): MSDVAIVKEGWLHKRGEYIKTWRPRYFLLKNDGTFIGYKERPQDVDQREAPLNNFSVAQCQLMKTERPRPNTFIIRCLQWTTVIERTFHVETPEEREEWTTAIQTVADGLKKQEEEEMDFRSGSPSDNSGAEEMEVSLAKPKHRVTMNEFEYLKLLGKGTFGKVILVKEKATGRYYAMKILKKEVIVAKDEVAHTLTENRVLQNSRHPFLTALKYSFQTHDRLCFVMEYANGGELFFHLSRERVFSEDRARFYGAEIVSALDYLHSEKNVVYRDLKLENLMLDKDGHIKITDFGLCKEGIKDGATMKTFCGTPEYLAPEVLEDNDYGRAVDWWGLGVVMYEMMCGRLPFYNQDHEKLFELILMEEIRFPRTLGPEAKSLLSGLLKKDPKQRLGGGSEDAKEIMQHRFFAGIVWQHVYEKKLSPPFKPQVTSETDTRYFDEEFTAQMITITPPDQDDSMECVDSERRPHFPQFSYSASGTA
Source text: as §1

PAK4 = PAK4 (Homo sapiens, UniProt O96013); details: PAK4; inhibitor at 500 nM; read-out: percentage of the remaining kinase activity
Sequence of PAK4 (O96013 whole entry): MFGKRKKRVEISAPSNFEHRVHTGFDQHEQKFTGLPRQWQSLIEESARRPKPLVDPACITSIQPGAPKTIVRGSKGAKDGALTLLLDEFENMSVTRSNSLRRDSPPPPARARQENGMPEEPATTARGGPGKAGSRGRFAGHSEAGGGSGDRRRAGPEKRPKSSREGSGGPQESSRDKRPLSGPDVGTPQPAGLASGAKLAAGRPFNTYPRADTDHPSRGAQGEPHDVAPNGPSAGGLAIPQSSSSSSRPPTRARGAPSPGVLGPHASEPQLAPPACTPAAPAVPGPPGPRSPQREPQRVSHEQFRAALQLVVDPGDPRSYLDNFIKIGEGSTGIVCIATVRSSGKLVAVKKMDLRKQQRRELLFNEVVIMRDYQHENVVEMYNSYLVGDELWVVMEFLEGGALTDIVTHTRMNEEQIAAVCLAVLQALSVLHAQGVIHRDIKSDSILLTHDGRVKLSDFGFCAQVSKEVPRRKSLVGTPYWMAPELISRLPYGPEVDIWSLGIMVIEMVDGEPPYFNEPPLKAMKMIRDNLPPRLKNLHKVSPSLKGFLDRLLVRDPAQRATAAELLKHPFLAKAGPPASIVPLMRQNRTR
Source text: as §1

RET = RET (Homo sapiens, UniProt P07949); details: RET; inhibitor at 500 nM; read-out: percentage of the remaining kinase activity
Sequence of RET (P07949 29-1114): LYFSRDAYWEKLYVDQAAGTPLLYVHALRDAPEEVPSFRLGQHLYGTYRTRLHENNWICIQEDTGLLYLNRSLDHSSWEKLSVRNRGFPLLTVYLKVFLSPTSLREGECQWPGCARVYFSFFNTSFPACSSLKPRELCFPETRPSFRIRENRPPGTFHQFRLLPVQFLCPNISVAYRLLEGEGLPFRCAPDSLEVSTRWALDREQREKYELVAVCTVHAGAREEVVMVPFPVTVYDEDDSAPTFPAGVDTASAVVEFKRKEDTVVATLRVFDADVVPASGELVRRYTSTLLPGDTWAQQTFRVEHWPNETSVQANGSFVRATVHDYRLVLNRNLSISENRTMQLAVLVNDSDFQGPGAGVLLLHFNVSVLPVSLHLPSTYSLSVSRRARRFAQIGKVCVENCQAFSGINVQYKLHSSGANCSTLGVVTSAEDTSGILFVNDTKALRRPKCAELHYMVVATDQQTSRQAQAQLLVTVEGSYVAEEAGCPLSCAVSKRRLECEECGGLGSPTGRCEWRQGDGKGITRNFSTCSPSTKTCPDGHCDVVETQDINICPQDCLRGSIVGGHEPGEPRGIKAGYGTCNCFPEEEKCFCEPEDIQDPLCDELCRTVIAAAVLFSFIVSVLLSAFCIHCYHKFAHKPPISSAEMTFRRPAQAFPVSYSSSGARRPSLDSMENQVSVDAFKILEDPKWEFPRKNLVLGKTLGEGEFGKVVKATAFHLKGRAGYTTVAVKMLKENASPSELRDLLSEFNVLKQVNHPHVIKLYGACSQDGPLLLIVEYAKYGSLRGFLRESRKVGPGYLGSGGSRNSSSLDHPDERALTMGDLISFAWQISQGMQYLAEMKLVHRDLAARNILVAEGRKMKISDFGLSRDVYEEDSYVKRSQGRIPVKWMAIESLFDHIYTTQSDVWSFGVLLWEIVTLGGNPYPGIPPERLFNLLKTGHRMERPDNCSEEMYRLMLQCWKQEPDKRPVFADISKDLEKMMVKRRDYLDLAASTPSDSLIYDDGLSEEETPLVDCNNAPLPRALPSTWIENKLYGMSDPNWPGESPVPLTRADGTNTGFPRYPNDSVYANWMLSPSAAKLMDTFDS
Source text: as §1

PDPK1 = target: T2, PDPK1 (Homo sapiens, UniProt O15530); details: PDPK1; inhibitor at 500 nM; read-out: percentage of the remaining kinase activity
T2 sequence (O15530 1-556): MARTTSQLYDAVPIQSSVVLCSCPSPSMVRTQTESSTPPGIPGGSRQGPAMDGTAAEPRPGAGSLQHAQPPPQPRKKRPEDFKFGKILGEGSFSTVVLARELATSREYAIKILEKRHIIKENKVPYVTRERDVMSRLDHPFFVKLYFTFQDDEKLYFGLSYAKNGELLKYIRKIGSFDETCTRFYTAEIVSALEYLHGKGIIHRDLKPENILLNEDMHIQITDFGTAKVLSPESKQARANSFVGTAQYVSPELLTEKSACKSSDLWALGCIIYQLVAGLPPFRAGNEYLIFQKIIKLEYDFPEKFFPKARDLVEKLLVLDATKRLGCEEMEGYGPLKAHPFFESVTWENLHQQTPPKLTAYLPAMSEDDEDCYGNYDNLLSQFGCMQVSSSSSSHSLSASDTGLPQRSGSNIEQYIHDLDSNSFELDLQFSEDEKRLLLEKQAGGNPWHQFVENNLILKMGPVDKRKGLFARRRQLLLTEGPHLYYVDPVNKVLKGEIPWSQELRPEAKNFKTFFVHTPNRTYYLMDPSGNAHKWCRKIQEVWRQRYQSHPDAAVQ
Source text: as §1

JAK2 = JAK2 (Homo sapiens, UniProt O60674); details: JAK2; inhibitor at 500 nM; read-out: percentage of the remaining kinase activity
Sequence of JAK2 (O60674 whole entry): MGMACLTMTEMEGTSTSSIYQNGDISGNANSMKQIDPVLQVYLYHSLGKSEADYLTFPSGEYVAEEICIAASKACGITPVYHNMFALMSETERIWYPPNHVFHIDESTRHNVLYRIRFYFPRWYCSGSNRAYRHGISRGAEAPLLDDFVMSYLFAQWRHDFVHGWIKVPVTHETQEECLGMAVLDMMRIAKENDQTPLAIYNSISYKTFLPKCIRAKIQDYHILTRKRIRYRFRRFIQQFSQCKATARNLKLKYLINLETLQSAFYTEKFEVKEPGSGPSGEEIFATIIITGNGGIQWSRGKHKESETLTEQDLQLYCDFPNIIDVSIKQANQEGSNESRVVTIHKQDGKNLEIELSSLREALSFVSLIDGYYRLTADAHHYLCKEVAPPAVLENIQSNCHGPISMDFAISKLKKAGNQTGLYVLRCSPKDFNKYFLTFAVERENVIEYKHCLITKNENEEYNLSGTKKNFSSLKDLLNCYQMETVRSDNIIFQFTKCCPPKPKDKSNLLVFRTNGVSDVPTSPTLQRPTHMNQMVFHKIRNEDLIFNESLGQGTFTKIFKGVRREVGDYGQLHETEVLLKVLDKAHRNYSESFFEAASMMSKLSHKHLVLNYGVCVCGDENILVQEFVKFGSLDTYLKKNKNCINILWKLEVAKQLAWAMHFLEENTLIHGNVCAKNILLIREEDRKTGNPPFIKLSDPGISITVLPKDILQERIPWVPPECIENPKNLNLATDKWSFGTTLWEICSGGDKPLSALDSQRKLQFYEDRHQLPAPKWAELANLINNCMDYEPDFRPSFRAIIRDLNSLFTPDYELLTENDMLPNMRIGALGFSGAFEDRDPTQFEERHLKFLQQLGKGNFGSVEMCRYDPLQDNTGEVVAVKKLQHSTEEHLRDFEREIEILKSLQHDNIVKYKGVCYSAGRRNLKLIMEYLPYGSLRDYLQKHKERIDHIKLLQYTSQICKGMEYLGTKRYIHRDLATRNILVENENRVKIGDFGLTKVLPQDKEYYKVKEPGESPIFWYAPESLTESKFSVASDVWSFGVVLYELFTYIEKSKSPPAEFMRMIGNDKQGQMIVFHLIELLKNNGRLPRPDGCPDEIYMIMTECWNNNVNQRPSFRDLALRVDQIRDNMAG
Source text: as §1

BTK = BTK (Homo sapiens, UniProt Q06187); details: BTK; inhibitor at 500 nM; read-out: percentage of the remaining kinase activity
Sequence of BTK (Q06187 whole entry): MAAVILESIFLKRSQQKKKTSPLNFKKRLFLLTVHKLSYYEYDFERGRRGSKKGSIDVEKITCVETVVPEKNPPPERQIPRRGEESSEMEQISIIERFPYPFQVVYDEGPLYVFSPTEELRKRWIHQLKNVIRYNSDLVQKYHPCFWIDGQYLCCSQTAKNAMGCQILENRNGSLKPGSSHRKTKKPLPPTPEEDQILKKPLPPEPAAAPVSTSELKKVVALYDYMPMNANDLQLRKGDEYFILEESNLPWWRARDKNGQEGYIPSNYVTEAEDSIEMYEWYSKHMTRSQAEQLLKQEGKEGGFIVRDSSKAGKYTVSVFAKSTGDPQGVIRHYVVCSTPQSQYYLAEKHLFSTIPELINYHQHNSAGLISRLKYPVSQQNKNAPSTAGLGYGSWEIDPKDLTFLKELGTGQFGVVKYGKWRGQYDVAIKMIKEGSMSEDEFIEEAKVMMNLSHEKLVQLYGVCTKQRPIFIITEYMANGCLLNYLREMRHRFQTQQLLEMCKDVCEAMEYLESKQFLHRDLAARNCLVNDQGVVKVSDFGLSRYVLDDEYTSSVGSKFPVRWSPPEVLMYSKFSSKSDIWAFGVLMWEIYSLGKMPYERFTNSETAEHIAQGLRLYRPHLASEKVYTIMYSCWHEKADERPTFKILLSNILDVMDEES
Source text: as §1

STK4 = target: T3, STK4 (Homo sapiens, UniProt Q13043); details: read-out: percentage of the remaining kinase activity
T3 construct: purchased Research Biology Corp. (http://www.reactionbiology.com)
T3 sequence (Q13043 1-487): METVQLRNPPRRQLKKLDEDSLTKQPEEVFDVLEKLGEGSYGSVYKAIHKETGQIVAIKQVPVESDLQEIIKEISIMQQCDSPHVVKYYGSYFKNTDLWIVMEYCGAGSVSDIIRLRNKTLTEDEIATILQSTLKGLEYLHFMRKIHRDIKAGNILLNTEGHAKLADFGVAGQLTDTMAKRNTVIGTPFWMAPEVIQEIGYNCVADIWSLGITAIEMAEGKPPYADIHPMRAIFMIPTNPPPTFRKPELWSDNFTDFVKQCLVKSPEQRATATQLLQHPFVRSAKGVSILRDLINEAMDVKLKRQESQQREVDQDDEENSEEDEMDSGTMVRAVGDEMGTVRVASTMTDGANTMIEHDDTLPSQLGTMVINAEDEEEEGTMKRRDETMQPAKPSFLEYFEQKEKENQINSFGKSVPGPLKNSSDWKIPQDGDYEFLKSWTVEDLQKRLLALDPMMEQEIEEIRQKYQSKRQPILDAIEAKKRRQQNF
Source text: as §1

DYRK1A = DYRK1A (Homo sapiens, UniProt Q13627); details: DYRK1A; inhibitor at 500 nM; read-out: percentage of the remaining kinase activity
Source text: as §1

SMILES	remaining activity at 0.5 µM (CLK1)	remaining activity at 0.5 µM (LIMK1; LIMK1, inhibitor at 500 nM)	remaining activity at 0.5 µM (AXL; AXL, inhibitor at 500 nM)	remaining activity at 0.5 µM (KDR)	remaining activity at 0.5 µM (AKT1; AKT1, inhibitor at 500 nM)	remaining activity at 0.5 µM (PAK4)	remaining activity at 0.5 µM (RET)	remaining activity at 0.5 µM (PDPK1)	remaining activity at 0.5 µM (JAK2)	remaining activity at 0.5 µM (BTK)	remaining activity at 0.5 µM (STK4; STK4, inhibitor at 500 nM)	remaining activity at 0.5 µM (DYRK1A)	remaining activity at 0.5 µM (LIMK1)	remaining activity at 0.5 µM (AXL)	remaining activity at 0.5 µM (AKT1)	remaining activity at 0.5 µM (STK4)
COC1C(N(C)Cc2ccc(-c3ccccc3)cc2)CC2OC1(C)n1c3ccccc3c3c4c(c5c6ccccc6n2c5c31)C(=O)NC4 (stereo not drawn) [Compound 9]	73.7%	56.5%	37.6%	43.6%	46.9%	91.8%	14.8%	2.7%	4.4%	55.8%	1.5%	18.5%				
COC1C(N(C)C(=O)C(N)Cc2ccc(OC(C)(C)C)cc2)CC2OC1(C)n1c3ccccc3c3c4c(c5c6ccccc6n2c5c31)C(=O)NC4 (stereo not drawn) [Compound 4]	98.6%	66.9%	77.2%	50.8%	79.6%	95.2%	63%	13.3%	36.4%	65.4%	12%	17.8%				
COC1C(N(C)C(=O)C(N)CCC(=O)OC(C)(C)C)CC2OC1(C)n1c3ccccc3c3c4c(c5c6ccccc6n2c5c31)C(=O)NC4 (stereo not drawn) [Compound 6]	86.6%	39.5%	60.9%	42.4%	67.5%	80.8%	34.2%	3.4%	39.6%	43.6%	6%	13.8%				
CN[C@@H]1C[C@H]2O[C@@](C)([C@@H]1OC)n1c3ccccc3c3c4c(c5c6ccccc6n2c5c31)C(=O)NC4 [STU, staurosporine, reference compound]								-1.8%	0.8%				-0.6%	8.8%	3.8%	5.5%
